From patent US8481051B2, “Cytotoxic T-cell epitope peptides that specifically attack epstein-barr virus-infected cells and uses thereof” (Medical and Biological Laboratories Co., Ltd., priority 2005, dated 2013)

Key:
Type in all cases: cell-based, human
[1] = system: LMP1-specific CTL clone H7; experiment: IFNγ ELISPOT assay, CTL clone H7 with peptide-pulsed A0206-293T cells; settings: for recognition by H7 in ELISPOT assay: A0206-293T cells pulsed with various concentrations of synthetic peptide, FIG. 2D
Description: ELISPOT assays were performed by known methods (Kuzushima K., et al., Blood, 94:3094-3100 (1999); Kondo E., et al., J. Immunol., 169:2164-2171 (2002); and Kuzushima K., et al., Blood, 98:1872-1881 (2001)). Specifically, CD8 T cells were co-cultured with various stimulators in wells of Multiscreen-HA plates (MAHA S4510; Millipore, Billerica, Mass., USA) coated with anti-human interferon-γ (IFNγ) monoclonal antibody (Pierce Biotechnology, Philadelphia, Pa., USA).
As stimulators, HLA-A*0206-positive or -negative LCLs (1×10^5 cells/well) or HLA-A*0206-expressing HEK-293T (A0206-293T) cells (5×10^4 cells/well) transfected with plasmids using Lipofectamin 2000 (Invitrogen) were seeded into each well 48 hour before T cell addition. For peptide titration assays, several concentrations of synthetic peptides (Greiner, Frickenhausen, Germany) were pulsed to A0206-293T cells for one hour at room temperature. After probing with […] (Pierce Biotechnology) and reacting with peroxidase-labeled anti-rabbit IgG antibody (Genzyme, Cambridge, Mass., USA) for spot visualization, the plates were washed and dried. IFNγ spots were enumerated using a stereoscopic microscope.

SNK-6 cells = experiment: CTL assay (51Cr release) against SNK-6; settings: SNK-6 pulsed with 100 nM epitope peptide; four-hour CTL assay; FIG. 5A
Description: Next, cytotoxic activities of H7 on LCLs were explored. CTL assays were conducted according to the following procedures. Target cells were labeled with 50 μCi chromium (^51Cr) for one and a half hours at 37° C., washed, and mixed with CTLs at the indicated effector:target ratios in 96-well plates. After incubation for 4 or 16 hours at 37° C., the radioactivity in the supernatants was counted with a γ-counter. The percentage of specific ^51Cr release was calculated as follows: 100×{(experimental release)−(spontaneous release)}/{(maximum release)−([…])}.

[2] = system: EBNA1-specific CTL clone B5; experiment: IFNγ ELISPOT assay, CTL clone B5 with peptide-pulsed autologous CD40-B cells; settings: for recognition of 20-mer overlapping peptide by clone B5: autologous CD40-B cells pulsed with 10 μg/mL peptide, FIG. 9
Description: (§1) ELISPOT assays were performed by a known method (Kuzushima K., et al., Blood, 101:1460-1468 (2003)). Specifically, CD8 T cells were co-cultured with various stimulators in wells of Multiscreen-HA plates (Millipore, Billerica, Mass.) coated with anti-human interferon-γ (IFNγ) monoclonal antibody (Pierce Biotechnology, Philadelphia, Pa.). As stimulators, (A) autologous EBNA1 mRNA-transduced CD40-B cells or non-transduced CD40-B cells and (B) autologous or allogenic LCLs (1×10^5 cells/well) were seeded into each well. For peptide titration assays and the overlapping peptide assay described below, serial concentrations of synthetic peptides were added to autologous CD40-B cells for one hour at room temperature.
(§2) After reacting with anti-human IFNγ rabbit polyclonal antibody (Pierce Biotechnology), followed by addition of peroxidase-labeled anti-rabbit immunoglobulin antibody (Genzyme, Cambridge, Mass.) and substrate, the plates were washed and dried. IFNγ spots were enumerated under a stereoscopic microscope.

[3] = system: EBNA1-specific CTL clone C6; experiment: IFNγ ELISPOT assay, CTL clone C6 with peptide-pulsed autologous CD40-B cells; settings: autologous CD40-B cells pulsed with 10 μg/mL peptide; FIG. 9
Description: as §1, §2

## I I I I L I I F I (IIIILIIFI) [SEQ ID NO: 1]
[1]
  recognition by H7 in ELISPOT assay: recognized by H7
SNK-6 cells
  lysis of epitope peptide-pulsed SNK-6 cells by H7: efficiently lysed

## VYGGSKTSL [SEQ ID NO: 22]
[2]; autologous CD40-B cells, serial dilutions of peptide, FIG. 10C
  recognition by clone B5 in peptide titration: not recognized even with much higher concentrations

## #24: 20-mer overlapping EBNA1 peptide (402-421)
[3]
  recognition of 20-mer overlapping peptide by clone C6: recognized

## YLLEMLWRL [SEQ ID NO: 25, reference compound]
[1]; data not shown
  IFNγ production by H7 with the peptide: did not produce IFNγ

## I I I L I I F I (IIILIIF) [SEQ ID NO: 18, LMP1 amino acid residues 64-71]
[1]
  recognition by H7 in ELISPOT assay: only the 9-mer peptide was recognized by H7

## #38: 20-mer overlapping EBNA1 peptide (500-519)
[2]
  recognition of 20-mer overlapping peptide by clone B5: recognized

## #39: 20-mer overlapping EBNA1 peptide (507-526)
[2]
  recognition of 20-mer overlapping peptide by clone B5: recognized
